# Measured values published in US11033604B2, “Reagents and methods for treating bacterial infection” (priority 2018, dated 2021).
# Positions of bridges follow the written chain, without caps; N, C: chain ends. Non-standard residues stand in square brackets, D forms with d. No end group written: not given here.
# How the values were obtained:
# [1] = system: S. aureus MN8+mCherry biofilms; test: Fluorescence microscopy of biofilm adhesion to glass; format: cell-based, Staphylococcus aureus; conditions: 80 μM, 24 h, 37° C.
# Experimental: (§1) FIG. 2. S. aureus biofilm structures become less robust when grown in the presence of designed peptide inhibitors. (A) S. aureus MN8+mCherry™ biofilms were grown on glass substrates for 24 hours and then cells were washed and fixed. Addition of peptide inhibitors (80 μM) reduced adhesion to the slide, causing cells to detach during the wash step. Images are representative of duplicate wells. (B) In S. aureus SH1000 WT biofilms grown in regular LB medium, PSM amyloid fibrils are visible as deposits in spaces between cells (left). Upon addition of the designed peptide AP90 (80 μM), no extracellular fibril deposits were observed (right).
# (§2) To further investigate the ability of designed peptides to inhibit PSM amyloid formation, fluorescent (mCherry™ ) MN8 biofilms were grown in culture plates with glass bottom wells. After 24 hours at 37° C. the biofilms were gently rinsed with pipetted saline to remove unattached biomass and the remaining attached cells were fixed and imaged. […] These qualitative results are in good agreement with the quantitative results obtained for amyloid inhibition in FIG. 1B. Addition of anti-α-sheet peptides triggered a significant reduction in PSM amyloid formation as measured by ThT fluorescence and also served to weaken the S. aureus biofilms by reducing the PSM amyloid fibril content of the extracellular matrix. […]
# [2] = system: S. aureus SH1000 WT biofilms; test: TEM of biofilm extracellular fibrils; format: cell-based, Staphylococcus aureus; conditions: LB medium, 80 μM
# Experimental: as §1, §2
# [3] = system: Pseudomonas aeruginosa (PA); test: Crystal violet biofilm assay; format: cell-based
# Excerpt: (§3) Furthermore, these same inhibitors are active against EC, SE, and SM.
# [4] = system: Staphylococcus epidermidis (SE); test: Crystal violet biofilm assay; format: cell-based
# Excerpt: as §3
# [5] = system: Streptococcus mutans (SM); test: Crystal violet biofilm assay; format: cell-based
# Excerpt: as §3
# E. coli UTI89 = test: Bacterial growth and biofilm versus planktonic proportion; format: cell-based; conditions: UTI89 biofilm cultures
# Excerpt: FIG. 12. […] Error bars indicate standard deviation of the mean of at least three replicates. Significance values are p<0.05: *, p<0.01: **, p<0.001: ***.
# (§4) UTI89 biofilms were also cultivated in the presence of an unstructured peptide, P1, which retains a mixture of L- and D-amino acids but lacks the α-sheet secondary structure of AP193.
# csgA expression = test: RT-qPCR of csgA expression in biofilms; format: cell-based, E. coli; conditions: biofilms grown with peptide vs peptide-free controls
# Excerpt: as §4
# [6] = system: bacterial biofilm on glass disks; test: Biofilm formation on α-sheet peptide coated glass disk; format: cell-based; conditions: polydopamine-grafted peptide, FIG. 17 (dimeric AP193)
# Excerpt: FIG. 17. Bacterial adherence and growth of biofilm on glass disks and decreased adhesion of bacteria (GFP signal) and biofilm and amyloid formation (Brightfield image) when glass is coated with α-sheet peptides, shown for dimeric AP193. This is a model for biofilm formation on implanted devices such as prosthetic joints.
# We have conjugated α-sheet peptides to other functional molecules to enhance their efficacy at the site of biofilm infection, i.e., the surface of biomedical implants. To this end, we used a polydopamine (PDA) coating approach to facilitate attachment of α-sheet peptides to biomedical implant materials. […]
# For α-sheet peptide grafting, 0.5 mg/mL peptide (e.g. AP90, AP193, or P1 as a control) was dissolved in 10 mM Tris pH 8.0 and then applied to PDA-coated substrates for overnight reaction (18 hours). […] First, the concentration of peptide remaining in solution after conjugation was measured by NanoOrange™ assay to determine coupling efficiency and surface density. Second, accessibility of α-sheet peptides on the surface was determined by immunofluorescence; PGPMs were blocked with 5% BSA solution for 12 h, incubated with AlexaFluor®568-conjugated Pac53 antibody (which recognizes α-sheet peptides), and then washed and imaged on a fluorescent microscope to ensure attachment to the disks. […]
# CsgA = CsgA (Escherichia coli, UniProt P28307); conditions: dimeric AP193, 14:1 molar ratio (CsgA:AP193), 150 h, 25° C.
# CsgA, sequence (P28307 21-151): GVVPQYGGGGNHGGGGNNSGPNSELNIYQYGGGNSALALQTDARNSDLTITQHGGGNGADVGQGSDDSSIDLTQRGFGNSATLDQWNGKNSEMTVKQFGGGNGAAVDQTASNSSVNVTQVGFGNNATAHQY
# Experimental: A) CsgA aggregation monitored by ThT fluorescence. […] Error bars represent one standard deviation from the mean of three replicates.
# For inhibition assays with CsgA, purified, recombinant CsgA was desalted from a stock solution containing 8 M Gnd HCl into 50 mM potassium phosphate buffer (KPi, pH 6.2) and diluted to a final concentration of 0.2 mg/m L. Samples were aliquoted into 96 well plates and incubated quiescently at 25° C. Plates were removed for periodic measurements in a plate reader, where the fluorescence of Thioflavin T (ThT) was used to monitor protein fibril formation in real time. ThT fluoresces upon binding p-sheet structure and serves as a proxy for amyloid fibril content.
# In some samples, the dimeric α-sheet peptide AP193 was also added to the mixture at a molar ratio of 14:1 (CsgA:AP193). After 150 h incubation, the extent of amyloid formation in the two samples was measured by ThT fluorescence (FIG. 11C).
substance,measurement,setting,value
"RGEmNlCwMNEYSGWcMnLkMGR (RGE[dM]N[dL]C[dW]MNEYSGW[dC]M[dN]L[dK]MGR; disulfide 7-16 (inferred)) [AP407, variant of AP90 with a disulfide bond]",Biofilm attachment to glass after rinsing,[1],caused nearly all of the biofilm to detach
"RGEmNlSwMNEYSGWtMnLkMGR (RGEMNLSWMNEYSGWTMNLKMGR; not fully specified (residues 4, 6, 8, 16, 18, 20); printed as RGEmNlSwMNEYSGWtMnLkMGR) [AP90]",Extracellular PSM amyloid fibril deposits by TEM,[2],amyloid fibrils could not be found
same,"Biofilm inhibition (crystal violet, FIG. 10)",[3],inhibition
same,Activity against biofilm-forming bacteria (crystal violet),[4],active
same,Activity against biofilm-forming bacteria (crystal violet),[5],active
RGEmNyFwMNEYYGWtMnCkMGR (RGE[dM]N[dY]F[dW]MNEYYGW[dT]M[dN]C[dK]MGR) [AP193],Bacterial killing / growth inhibition,E. coli UTI89,does not kill bacteria or inhibit their growth
same,csgA expression (RT-qPCR),csgA expression,did not reveal any significant changes in csgA expression
same,Amount of bacterial biofilm on peptide-coated glass disk,[6],dramatic drop in the amount of bacterial biofilm
same,CsgA fibril formation (endpoint ThT fluorescence),CsgA,significantly reduced
